{"source": "patent US6448378B2", "about": "“Compound delivery using rapidly dissolving collagen film” (priority 1998, dated 2002)", "key": {"[1]": {"assay": "HPLC analysis of mitomycin solution stability", "type": "physicochemical", "details": "storage at ambient temperature and 4° C. in the dark", "method": "In contrast to the stability of mitomycin in the collagen film, HPLC analysis of the mitomycin solution determined that stability was maintained for only 4 days following storage at ambient temperature and 4° C. in the dark. Dissolution and storage in 0.9% saline or phosphate buffer (pH 7.4) is not recommended due to degradation and precipitation."}, "[2]": {"test_system": "human subconjunctival fibroblasts derived from Tenon's membrane", "details": "freshly prepared 0.4 mg/ml solution, dissolved in USP sterile water", "description": "6 mm diameter discs were cut from the film and applied to human subconjunctival fibroblasts derived from Tenon's membrane layered in 96 well plates (CSM supplemented with 10% fetal bovine serum). After 72 hours, mitomycin-induced inhibition of cell division was assessed by measuring the reduction in fluorescence intensity (RFU) using a fluorogenic CalceinAM assay (see, for example, Decherchi et al., J. Neurosci. Meth. 71: 205 (1997); Sugita, Pflitgers Arch. 429: 555 (1995); Padanilam et al., Ann. NY Acad. Sci. 720: 111 (1994); Lichtenfels et al., J. Immunol. Meth. 172: 227 (1994); and Wang et al., Human Immunol. 37: 264 (1993))."}}}
{"smiles": "CO[C@@]12[C@H](COC(N)=O)C3=C(C(=O)C(C)=C(N)C3=O)N1C[C@@H]1N[C@@H]12", "note": "[mitomycin solution, mitomycin]", "values": [{"measurement": "time for which stability of the solution was maintained (HPLC)", "setting": "[1]", "result": 4, "unit": "days"}, {"measurement": "% cell death inhibition relative to the values of the mitomycin-collagen films (91%, 90%, 92%)", "setting": "[2]", "result": "comparable"}]}
